“And” between values parts separate entries of the source, which are not always exact repeats. Equal values may be shown once. Read-outs that look alike come from different tables or passages of the source.

Series [1] is described as follows: Stability and homogeneity of C16 dispersion in Medigel Sucralose. The class given is physicochemical. The note with it: for Peak ratio C16/IS relative to first time point, Average of three wavelengths: Medigel Sucralose 235.29 mg/cup, 1.64% DMSO. The procedure:
A pre-weighed amount of C16 was dissolved in 1 mL of DMSO and the resulting solution was delivered into a cup of Medigel sucralose (pre-warmed to room temperature) with a syringe through the foil lid. In order to facilitate even distribution of C16 in the gel, the injection was spread over several points. The resulting suspension of C16 in gel was dispersed evenly by vigorous shaking for at least two minutes. Visual control confirmed a uniform and finely dispersed suspension of C16 particles in the gel. The final DMSO concentration in the gel was 1.64%. […]
A.B. Vehicle development for repeated high-dose PO administration of C16 b. Stability test of the 300 mg/kg preparation of C16 in Medigel Sucralose at room temperature The 300 mg/kg preparation refers to a cup containing 235.29 mg of C16 and 1.64% DMSO (see Materials and Methods section of main text). Sampling took place for a solvent control cup (containing only 1.64% DMSO) , and for the medicated cup at 0.17, 5.33, 55, 102 and 144 h post preparation. Samples of 1 mL were withdrawn with syringe and needle through the lid, and mixed with 1 mL of acetonitrile. The supernatant of the resulting suspension was filtered through a Whatman 0.2 µm PTFE syringe filter and analyzed using HPLC -MS.
Instrument: Agilent 1200 series HPLC system
Column: Ascentis Express C18 column 2.7 µm (30 x 4.6 mm)
Mobile phase A: Water (H2O) + 5 mM NH4OAc
Mobile phase B: Acetonitrile
Column Temperature: 40 °C
UV Detector: Diode array detector, 190 – 400 nm
Table B. Stability of C16 in Medigel Sucralose: g radient program .
Time (min) Flow rate (mL/min) A (%) B (%)
Mass spectrometer conditions
Instrument: Agilent 1100 series VL mass spectrometer
Ionization mode: API-ES, positive ions
Main derivative: Z-isomer of C16
Retention time : 3.34 min
Table C. Stability of C16 in Medigel Sucralose: evolution of peak areas of IS, C16 and its Z-isomer in time for three wavelengths. […]
time IS peak C16 Z- Ratio IS peak C16 Z- Ratio IS peak C16 Z- Ratio
(h) area peak isomer (C16/IS area peak isomer (C16/IS area peak isomer (C16/IS (mAU.s) area peak peak (mAU.s) area peak peak (mAU.s) area peak peak
(mAU.s) area area) (mAU.s) area area) (mAU.s) area area)
Peak ratios for stability assessment
Peak ratios for C16/IS, relative to the first time point, were calculated for three wavelengths (Table D).
Table D. Stability of C16 in Medigel Sucralose: peak ratios for C16/IS, relative to first time point, for three wavelengths.
Peak ratios for homogeneity assessment of a 300 mg/kg C16-doped gel
The 300 mg/kg preparation refers to a cup containing 235.29 mg of C16 and 1.64% DMSO. After preparation (see ‘Materials and Methods’ section of main text), the gel was sampled through the lid at five sites (Fig A).
Fig A. Sampling of C16-doped Medigel Sucralose.
The samples were analyzed according to the method described above for the stability test of C16 in Medigel Sucralose […]
Table E. Peak areas of IS, C16 and its Z-isomer at five sampling sites for three wavelengths. […]
sites IS peak C16 peak Ratio IS peak C16 peak Ratio IS peak C16 peak Ratio area area (C16/IS area area (C16/IS area area (C16/IS
(mAU.s) (mAU.s) peak area) (mAU.s) (mAU.s) peak area) (mAU.s) (mAU.s) peak area) […]
Individual plasma concentrations for C16 are shown in Table F and Table G. All data are expressed as ng/mL of the free drug. Samples that were below the limit of quantitation were not used in the calculation of averages. Plasma concentrations versus time data are plotted in Fig B and Fig C. Measured dosing concentrations were used in all pharmacokinetic calculations.
(1 picture or pasted object on this page, not shown here)

Series [2] can be described thus: High-dose PK, single PO 300 mg/kg via oral gavage. The format is in vivo. The note with it: single 300 mg/kg oral gavage; for Individual whole blood concentration: animals 4-1 to 4-3. The procedure: On the morning of day 7, the water group received a single PO administration of 300 mg/kg C16 (10 mL/kg) for high-dose PK evaluation, using a 30 mg/mL solution of C16 in 10% Solutol HS-15 / 90% PEG 600 (prepared as described above). To that extent, blood was collected via the tail vein at the 30 and 60 min time point, and via cardiac exsanguination after 180 min (protocol as for other cohorts). Samples for hematological and biochemical analysis were also prepared. Afterward, animals were sacrificed by cervical dislocation.
Blood samples (25 μL) were collected via the tail vein or cardiac puncture (last time point). Blood was pipetted into a tube with 25 μL heparinized water (1 μL of sodium heparin (1000 units/mL) + 24 μL water) within 30 seconds of collection. The sample was pipetted up and down five times, immediately frozen on dry ice, and stored at -60°C to -80°C until analysis.
E.C. Whole blood C16 levels […]
BLOQ: below the limit of quantitation (0.5 ng/mL). Samples that were below the limit of quantification were not used in the calculation of
Table BB. […]

In the case of `COc1cc(C(=O)/C=C/c2ccc(F)cc2)cc(OC)c1OC` [C16, 4-fluoro-3’,4’,5’-trimethoxychalcone], the “Peak ratio C16/IS relative to first time point, Average of three wavelengths” value in series [1] (room temperature, 5.3 h) is on record as 90.3; in series [1] (room temperature, 55 h), 95.0; in series [1] (room temperature, 102 h), 96.9; in series [1] (room temperature, 144 h), 85.8. For the same compound, the “Distribution of compound in Medigel Sucralose” value in series [1] (five sampling sites) is listed as “uniformly distributed”. Further, in series [1] (room temperature, over 144 h), the “Stability of suspension in Medigel Sucralose” value is “stable”. In series [2] (male, CD-1, mouse, whole blood, po, 0.5 h, Average±SD), this compound displayed a concentration at 0.5 h of 32.3 ± 24.2 ng/mL. For the same compound, in series [2] (male, CD-1, mouse, whole blood, po, 1 h, Average±SD), the concentration at 1 h stood at 28.3 ± 12.1 ng/mL. The concentration at 3 h was found to be 15.1 ± 2.9 ng/mL in series [2] (male, CD-1, mouse, whole blood, po, 3 h, Average±SD, read-out: Whole blood concentration) and 18.4 ng/mL in series [2] (mouse, whole blood, po, 3 h, animals 4-1 to 4-3, read-out: Individual whole blood concentration). Further, the “Individual whole blood concentration” value in series [2] (mouse, 0.5 h) is 19.3 ng/mL and 60.2 ng/mL and 17.5 ng/mL; in series [2] (mouse, 1 h), 28.5 ng/mL and 40.3 ng/mL and 16.2 ng/mL; in series [2] (mouse, 3 h) it was 13.9 ng/mL and 13.1 ng/mL.
